Laboratory results published in EP2229935A1, “Peptide derivatives or pharmaceutically acceptable salts thereof, method for producing the same, use of said derivatives and pharmaceutical composition” (Nebolsin, Vladimir Evgenievich, priority 1997, dated 1999).
Read-outs that look alike come from different tables or passages of the source. Marks after values point to notes of the source that are not given here.

Legend:
white mongrel male rats [1] = test: Carrageenan paw edema, oral administration (series I); format: in vivo; details: once 20 µg/kg 1 hour before edema induction
Experimental: Experiment was carried out on white mongrel male rats weighing 280-300 g. Carrageenan-induced edema was caused according to the method of Winter et al. [[inter et al. In: De Rosa M., Giroud J.P., Willoughby D.A. Studies of the mediators of the acute inflammatory reponse induced in rats in different sites by carrageenan and turpentine. […] Paw volume measurement was done using a plethysmograph (Ugo Basile) 1, 3 and 4 hours after carrageenan administration. Inhibition of inflammatory reaction expressed in percent, was calculated according to the formula: 100-[(R-L(exper.))/(L):(R-L(control))/(L)x100](%) [formula] where R - the right paw volume, L - the left paw volume.
Series I of experiment. […] The reference drug Naproxene was once administered at a dose 20 µg/kg 1 hour before edema induction. Each group included 10 animals.

white mongrel male rats [2] = test: Paw edema induced by Freund's complete adjuvant; format: in vivo; details: rats, FCA edema; once 50 µg/kg 1 hour before edema induction
Experimental: Experiment was carried out on white mongrel male rats weghing 280-300 g. The model of paw edema induced by Freund's complete adjuvant (FCA), was reproduced according to the method of Ezamuzie and Umezurike [Ezamuzie Ch., Umezurike C.C. Effect of histamine H2-receptor antagonists on acute inflammatory of the rat paw oedema. J. Pharmacol. (1989), Vol. 41, pp. 261-265]. Paw volume measurement was done using a plethysmograph (Ugo Basile). Inhibition of inflammatory reaction expressed in percent, as calculated according to the formula: 100-[(R-L(exper.))/(L):(R-L(control))/(L)x100](%) [formula] where R - the right paw volume, L - the left paw volume.
Each group included 10 animals.
Group of animals: • Group 1 - control, animals were administered 0.5 ml of 1% starch solution. • Group 2 - animals were administered the compound XLVIII. • Group 3 - animals were administered the compound III. • Group 4 - animals were administered Naproxene.

mongrel rats = test: Antiischemic activity: necrosis zone after coronary artery occlusion (myocardial infarction); format: in vivo; details: 4 hours after occlusion, single intraperitoneal immediately after occlusion, 1000 µg/kg
Experimental: Antiischemic activity of a compound was assessed by an integral test, i.e. effect on the necrosis zone area following reproduction of myocardial infarction in mongrel rats weighing 250-300 g.
Effect of a compound on the necrosis zone area was studied in 4 hours after arterial occlusion in rats using a differential indicator method [Sernov L.N., Gatsura V.V. A differential indicator method for determinig ischemic and necrotic zone in experimental myocardial infarction in rats. Bulletin of Experimental Biology and Medicine (1989), No 5, pp. 534-535]. All the painful manipulations were performed on animals under Ethaminal anesthesia (Ethaminal - 40 mg/kg intraperitoneally). Experiment was carried out in 15 hours after the last compound administration. Each group included 8 animals.
Groups of animals: • Group 1 - intact control -administration of normal saline four times. • Groups 2 and 3 - oral administration of the compound III at doses respectively 50 and 500 µg/kg for 4 days. • Group 4 - single intraperitoneal administration of Nicorandil at a dose 1 mg/kg immediately after occlusion.

[3] = tested on: Isolate HIV-1/IV17 of type 1 human immunodeficiency virus; test: Viability of MT-4 cells acutely infected with HIV-1; format: cell-based; details: Human immunodeficiency virus 1, MT4, 168 h, day 7, series 2 (infected cells 24, non-infected 88), read-out: Viability of cells in percent
Experimental: Study was carried out on the culture of human lymphoblastoid cells MT-4. Isolate HIV-1/IV17 of type 1 human immunodeficiency virus from the collection of the D.I.Ivanovsky Institute for Virology was used in experiment. The test compounds of general formula (I): III, VI, VII were introduced into cellular culture at concentrations 1.0; 0.1 and 0.01 µg/ml. The reference drug Azidothymidine was introduced at a dose 0.05 µM/ml. The compounds were introduced into the culture of MT-4 cells at a dose 1000 TCD50 one hour prior to virus introduction. Viability of MT-4 cells was estimated by day 7 of experiment.
Viability of cells was the main efficacy parameter of the test compounds.

[4] = tested on: Lewis pulmonary carcinoma (LLC); test: Lewis pulmonary carcinoma spontaneous metastasizing, oral administration; format: in vivo; details: BDF1 female mice with LLC, oral 24 days; for Mean number of metastases: day 25
Experimental: Each group included 15 animals. 0.3 ml of LLC tumor tissue suspension was intramuscularly injected to mice. Henks solution was used as a solvent. […] Moscow (1992) 13 pp.]. […]

mongrel male rats [5] = test: Hypolipidemic activity: experimental hyperlipidemia (atherogenic load); details: atherogenic diet, oral last four days; for HDL-CS / Total CS / Triglycerides: blood; for Kcs: cholesterol index;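 for all read-outs here: serum drawn 18 h after the final dose from rats deprived of food over that interval, groups of 10 animals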
superoxide anion-radical = test: Superoxide anion-radical formation in the xantine-xantine oxidase system (chemiluminescence); format: biochemical
mongrel male rats [6] = details: po, 96 h
hydroxyl radical = test: Hydroxyl radical formation in the Fenton reagent (chemiluminescence); format: biochemical
peritoneal macrophages = test: Activity of peritoneal macrophages (NBT reduction test); format: in vivo, mongrel white male mice
Experimental: Change in the activity of peritoneal macrophages (PM) as effected by the test compounds was studied.
Experiments were carried out on mongrel white male mice with initial body mass 20-22 g. Each group included 10 animals. Compounds III, VI, XLIV were dissolved in normal saline (NS). The test compounds were administered to animals orally for three days at doses 50 and 500 µg/kg. Animals of the control group were given equal volume of NS. Mice were sacrified 20 hours after the last compound administration, peritoneal cavity was washed with 1.5 ml Henks solution comprising 5 U/ml heparine. 0.1 ml of wash solution were incubated for 30 minutes at 37°C with 0.1 ml 0.2% nitroblue tetrasolium (NBT) solution, then smears were prepared. Nuclei were additionaly stained with o.1% neutral red solution. Results were expressed in percent of active cells [Klimov V.V., Kolovkina T.V. Nitroblue tetrasolium reduction test stimulated with pyrogenal. Laborotornoye delo (Laboratory matter) (1982), No 10, pp. 624-625]. […]

[7] = tested on: Strain Aichi of type A human influenza virus; format: in vivo; details: for MLT, days: series with Control - 2 (9.1), 3 days before and 10 days following infection; for Survival rate in percent: series with Control - 2 (34.5); for Protection degree in percent: series with Control - 2
[8] = tested on: hepatic P-450 cytochrome system; test: Hexenal sleep duration in mice; format: in vivo; details: CBF1 mice, oral 3 days, control 25.91 ± 1.57
Experimental: Change in Hexenal sleep (HS) duration is the in vivo measurable index of hepatic P-450 cytochrome system condition.
Studies were carried out on male mice of the lines BALB/c*h75, C57B1/6, CBA, DBA/2, first generation CBF1 and BDF1 hybrides, with initial mass 18-20 g, each group including 10 mice; and on mongrel male guinea pigs with initial mass 250-300 g, each group including 24 animals. All the test compounds (from II to LII) were administered orally in drinking water and for three days at doses 50 and 500 µg/kg. Hexenal hydrochloride at a dose […] of animal mass was administered 24 hours after the last drug administration, except for line BALB/c*h75 mice, which were administered Hexenal at a dose 60 µg/kg at the same terms, and guinea pigs for which Hexenal dose was 30 µg/kg. HS duration was determined in minutes.

[9] = 0.01 mM, control of the series as in the table
[10] = 0.1 mM, control of the series as in the table

COc1ccc2cc([C@H](C)C(=O)O)ccc2c1 [Naproxene, reference compound]
Inflammation inhibition (%) (white mongrel male rats [1]): 37%
Volume increment (white mongrel male rats [1]): 0.48 ± 0.02
Volume of paws (conditional units) Right (white mongrel male rats [1]): 1.82 ± 0.54 conditional units
Volume of paws (conditional units) left (white mongrel male rats [1]): 1.34 ± 0.25 conditional units
Inflammation inhibition (%) (white mongrel male rats [2]): 44%
Volume increment (white mongrel male rats [2]): 0.45 ± 0.02
Volume of paws (conditional units) Right (white mongrel male rats [2]): 1.75 ± 0.54 conditional units
Volume of paws (conditional units) left (white mongrel male rats [2]): 1.30 ± 0.25 conditional units

O=C(NCCO[N+](=O)[O-])c1cccnc1 [Nicorandil, reference compound]
Ischemia zone, percent to the total myocardial mass (mongrel rats): 25,0 ± 1,9%
Necrosis zone percent to myocardial zone (mongrel rats): 44,3 ± 5,0%
Necrosis zone, percent to the total myocardial mass (mongrel rats): 11,3 ± 1,6%

CC(=O)N[C@@H](CCC(=O)NCCc1c[nH]cn1)C(=O)O [VI, N -ACETHYL-γ-L-GLUTAMYLHISTAMINE]
viability at 0.01 µg/mL ([3]; 0.01 µg/ml): 45%
viability at 0.1 µg/mL ([3]; 0.1 µg/ml): 49%
viability at 1 µg/mL ([3]; 1.0 µg/ml): 54%
Mean number of metastases ([4]; 50 µg/kg): 35.5 ± 4.5*^2
Mean number of metastases ([4]; 500 µg/kg): 39.0 ± 14.0
Metastasizing inhibition percent ([4]; 50 µg/kg): 24.0%
Metastasizing inhibition percent ([4]; 500 µg/kg): 17.0%
HDL-CS (mongrel male rats [5]; 50 µg/kg): 35,7±5,6*^A
Total CS (mongrel male rats [5]; 50 µg/kg): 86,0±5,2
Triglycerides (mongrel male rats [5]; 50 µg/kg): 141,2±16,1***^A
HDL-CS (mongrel male rats [5]; 500 µg/kg): 45,8±3,5***^A
Total CS (mongrel male rats [5]; 500 µg/kg): 70,8±3,7***^A
Triglycerides (mongrel male rats [5]; 500 µg/kg): 127,2+7,1***^A
Kcs (mongrel male rats [5]; 50 µg/kg): 1,41±0,16***^A
Kcs (mongrel male rats [5]; 500 µg/kg): 0,55±0,04***^A
Chemiluminiscence intensity (mV) + σn-1 (superoxide anion-radical; [9]): 7295 ± 106 mV
relative effect: 1+/I- (superoxide anion-radical; 0.1 mM): 0.76
Chemiluminiscence intensity (mV) + σn-1 (superoxide anion-radical; [10]): 5518 ± 131 mV
relative effect: 1+/I- (superoxide anion-radical; 1 mM): 0.12
Chemiluminiscence intensity (mV) + σn-1 (superoxide anion-radical; 1 mM, control of the series 5616 ± 173, 5391 ± 195, 7290 ± 128 or 6776 ± 150): 902 ± 15 mV
LDL-CS+ VLDL-CS (mongrel male rats [6]; 0.05 mg/kg): 50,3±5,5**^A
LDL-CS+ VLDL-CS (mongrel male rats [6]; 0.5 mg/kg): 25,0±1,6***^A
Chemiluminiscence intensity (mV) + σn-1 (hydroxyl radical; [9]): 5014 ± 186 mV
relative effect: I+/I- (hydroxyl radical; 0.1 mM): 0.63
Chemiluminiscence intensity (mV) + σn-1 (hydroxyl radical; [10]): 3110 ± 210 mV
relative effect: I+/I- (hydroxyl radical; 1 mM): 0.05
Chemiluminiscence intensity (mV) + σn-1 (hydroxyl radical; 1 mM, control of the series 7839 ± 171, 1120 ± 163, 4974 ± 283 or 1332 ± 172): 257 ± 74 mV
portion of active macrophages (peritoneal macrophages; mice, oral three days at 50 and 500 µg/kg): at a dose 50 µg/kg
Activity of macrophages, percent (peritoneal macrophages; score 0 (no formazane inclusions, inactive PM), 50 µg/kg orally for three days): 17.9 ± 1.4%
Activity of macrophages, percent (peritoneal macrophages; score 0 (no formazane inclusions, inactive PM), 500 µg/kg orally for three days): 20.3 ± 3.4%
Activity of macrophages, percent (peritoneal macrophages; score 1 (single formazane inclusions), 50 µg/kg orally for three days): 30.9 ± 3.0%
Activity of macrophages, percent (peritoneal macrophages; score 1 (single formazane inclusions), 500 µg/kg orally for three days): 37.9 ± 3.1%
Activity of macrophages, percent (peritoneal macrophages; score 2 (inclusions fill up to 1/3 of PM cytoplasm), 50 µg/kg orally for three days): 40.3 ± 2.1%
Activity of macrophages, percent (peritoneal macrophages; score 2 (inclusions fill up to 1/3 of PM cytoplasm), 500 µg/kg orally for three days): 34.0 ± 4.0%
Activity of macrophages, percent (peritoneal macrophages; score 3 (inclusions fill up to 1/2 of PM cytoplasm), 50 µg/kg orally for three days): 10.4 ± 1.9%
Activity of macrophages, percent (peritoneal macrophages; score 3 (inclusions fill up to 1/2 of PM cytoplasm), 500 µg/kg orally for three days): 7.1 ± 2.0%
MLT, days ([7]; 50 µg/kg orally): 11.24*^2 days
MLT, days ([7]; 500 µg/kg orally): 11.62*^2 days
Survival rate in percent ([7]; 50 µg/kg orally): 73.3*^2%
Survival rate in percent ([7]; 500 µg/kg orally): 79.3*^2%
Protection degree in percent ([7]; 50 µg/kg orally): 38.8%
Protection degree in percent ([7]; 500 µg/kg orally): 44.8%
Hexenal sleep duration (minutes) ([8]; 50 µg/kg): 16.86 ± 1.38*** minutes
Hexenal sleep duration (minutes) ([8]; 500 µg/kg): 14.39 ± 1.73*** minutes
